Test results taken from patent publication EP4592286A1, “MACROCYCLIC NITROGEN-CONTAINING CROWN ETHER COMPOUND AND USE THEREOF AS PROTEIN KINASE INHIBITOR” (Artivila Biopharma, priority 2022, dated 2024).

How the values were obtained:
Mia Paca-2 cells = test: CDK9 cell activity test (Cell Titer-GLO cell growth inhibition), Mia Paca-2; format: cell-based; settings: Homo sapiens, 72 hours
Procedure: (§1) In these experiments, the cell line MV-4-11 was cultured in IMDM culture solution (containing 100 U/mL penicillin and 0.1 g/L streptomycin), the cell line HCC1187 was cultured in RPMI-1640 culture solution (containing 100 U/mL penicillin and 0.1 g/L streptomycin) containing 10% fetal bovine serum, the cell line Mia Paca-2 was cultured in DMEM (containing 100 U/mL penicillin and 0.1 g/L streptomycin) containing 10% fetal bovine serum and 2.5% horse serum, and the cell line A375 was cultured in RPMI-1640 culture solution (containing 100 U/mL penicillin and 0.1 g/L streptomycin) containing 10% fetal bovine serum. All cells were cultured in a saturated humidity incubator with 37 °C and 5% CO2.
(§2) When MV-4-11 cells, HCC-1187 cells, Mia Paca-2 cells and A375 cells grew to 80% -90% confleuncy, they were digested with trypsin, resuspended, counted and diluted to a certain cell density with complete medium, and inoculated into 96-well plate at 100 µL/well. […] The cells were lysed by mixing evenly for 2 minutes using a shaker, incubated at room temperature for 60 minutes to stabilize the chemiluminescence signal, and the chemiluminescence was read by PE EnVision microtiter plate reader. The cell growth inhibition rate Inh%=(DMSO well - compound treatment well)/(DMSO well - background well)×100 was calculated, and the cell growth IC50 value was obtained by fitting with GraphPad Prism 5 .

A375 cells = test: CDK9 cell activity test (Cell Titer-GLO cell growth inhibition), A375; format: cell-based; settings: Homo sapiens, A-375, 72 hours
Procedure: as §1, §2

CDK9 = CDK9 (Homo sapiens, UniProt P50750); test: experiment of inhibiting kinase activity (Caliper mobility shift assay), CDK9; format: biochemical
Outline: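 Kinase preincubated 10 min at room temperature with compound, then reaction started with ATP plus substrate; substrate conversion read by Caliper mobility shift after stop solution. Compounds tested at 10 and 100 nM or as 10-point 3-fold dilutions from 10 µM; IC50 from variable-slope fit of % inhibition.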

wild-type LRRK2 = target: T1, wild-type LRRK2 (Homo sapiens, UniProt Q5S007); test: detection of phosphorylated S935 in HEK293T overexpressing wild-type LRRK2; format: cell-based; settings: pS935, HEK293T overexpressing wild-type LRRK2, 1.5 hours
T1 construct: pCMV-flag-WT LRRK2 (full-length); expressed in transfected cells; host or cells: HEK293T
Procedure: Detection of phosphorylated S935 in HEK293T Overexpressing full-length LRRK2 (G2019S) or wild-type LRRK2
HEK293T cells was inoculated into a 6-well plate and cultured overnight. The next day, they were transiently transfected with plasmid pcDNA5-FRT/TO-FLAG LRRK2 (G2019S, full-length) or pCMV-flag-WT LRRK2 (full-length) by using Superfect transfection reagent and cultured at 37°C and 5% CO2 for 20-24 hours. The next day, cells were collected, resuspended at a density of 0.48×10^6 cells/ml, and inoculated into a 384-well plate at 50 microliters/well. Compound or DMSO solutions (volume ratio of 0.5%) were added by Tecan, and cultured at 37°C and 5% CO2 for 1.5 hours. After 1.5 hours, the supernatant was discarded, 50 microliters of 8% PFA were added in each well to fix the cells, and the cells were incubated at room temperature for 1 hour. The plate was washed with EL406 plate washer for three times, with 115 microliters of PBST per well, and the culture plate was patted to dryness. The cells were blocked with 50 microliters/well of Licor Odyssey blocking solution (0.1% Tween 20) at room temperature for 1.5 hours. The blocking solution was discarded and the culture plate was patted to dryness. 20 microliters of primary antibody (1:1000(pS935), diluted with Licor Odyssey buffer (0.1% Tween20)) was added into each well, and incubated at 4 °C overnight. The next day, the first antibody was discarded and washing was performed with PBST for five times. 20 microliters of secondary antibody (diluted with Licor Odyssey buffer (0.1% Tween20) at 1:500 and stained with DNA at 1:2000) were added into each well, and incubated at room temperature for 1 hour. The second antibody was discarded, and washing was performed for three times with PBST. The fluorescence intensity was measured by LICOR Odyssey imager Scanner, and the data was analyzed.

Sequence of CDK9 (P50750 whole entry): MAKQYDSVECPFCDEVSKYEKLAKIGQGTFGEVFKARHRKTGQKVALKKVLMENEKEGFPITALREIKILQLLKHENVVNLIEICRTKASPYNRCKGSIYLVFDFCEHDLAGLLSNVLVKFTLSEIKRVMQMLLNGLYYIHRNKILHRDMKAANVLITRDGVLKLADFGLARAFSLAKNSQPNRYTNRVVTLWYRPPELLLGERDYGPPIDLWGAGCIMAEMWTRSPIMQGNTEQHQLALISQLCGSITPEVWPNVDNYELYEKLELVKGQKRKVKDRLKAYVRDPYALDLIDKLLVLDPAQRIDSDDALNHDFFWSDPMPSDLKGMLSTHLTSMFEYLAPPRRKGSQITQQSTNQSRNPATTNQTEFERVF
Sequence of CDK9 (O60563 whole entry partner): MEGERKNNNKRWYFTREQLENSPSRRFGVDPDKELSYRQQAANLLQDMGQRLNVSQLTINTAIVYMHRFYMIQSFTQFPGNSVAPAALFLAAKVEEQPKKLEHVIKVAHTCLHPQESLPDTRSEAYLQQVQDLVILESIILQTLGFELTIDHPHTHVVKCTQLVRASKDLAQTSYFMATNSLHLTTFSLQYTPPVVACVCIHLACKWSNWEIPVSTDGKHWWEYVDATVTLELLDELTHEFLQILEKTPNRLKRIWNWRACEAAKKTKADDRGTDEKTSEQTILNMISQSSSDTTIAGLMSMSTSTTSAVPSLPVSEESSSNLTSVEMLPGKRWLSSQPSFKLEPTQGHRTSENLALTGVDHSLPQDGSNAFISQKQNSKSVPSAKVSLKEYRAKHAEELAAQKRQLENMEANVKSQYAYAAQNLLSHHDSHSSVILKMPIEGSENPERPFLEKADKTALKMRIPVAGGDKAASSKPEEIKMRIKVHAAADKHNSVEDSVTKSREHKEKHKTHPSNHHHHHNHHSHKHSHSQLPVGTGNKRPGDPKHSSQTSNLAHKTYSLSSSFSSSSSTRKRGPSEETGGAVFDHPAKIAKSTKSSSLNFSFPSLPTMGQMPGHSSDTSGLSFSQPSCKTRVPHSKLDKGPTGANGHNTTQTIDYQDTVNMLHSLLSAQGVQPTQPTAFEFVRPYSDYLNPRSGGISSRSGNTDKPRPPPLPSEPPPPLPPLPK
T1 sequence (Q5S007 whole entry): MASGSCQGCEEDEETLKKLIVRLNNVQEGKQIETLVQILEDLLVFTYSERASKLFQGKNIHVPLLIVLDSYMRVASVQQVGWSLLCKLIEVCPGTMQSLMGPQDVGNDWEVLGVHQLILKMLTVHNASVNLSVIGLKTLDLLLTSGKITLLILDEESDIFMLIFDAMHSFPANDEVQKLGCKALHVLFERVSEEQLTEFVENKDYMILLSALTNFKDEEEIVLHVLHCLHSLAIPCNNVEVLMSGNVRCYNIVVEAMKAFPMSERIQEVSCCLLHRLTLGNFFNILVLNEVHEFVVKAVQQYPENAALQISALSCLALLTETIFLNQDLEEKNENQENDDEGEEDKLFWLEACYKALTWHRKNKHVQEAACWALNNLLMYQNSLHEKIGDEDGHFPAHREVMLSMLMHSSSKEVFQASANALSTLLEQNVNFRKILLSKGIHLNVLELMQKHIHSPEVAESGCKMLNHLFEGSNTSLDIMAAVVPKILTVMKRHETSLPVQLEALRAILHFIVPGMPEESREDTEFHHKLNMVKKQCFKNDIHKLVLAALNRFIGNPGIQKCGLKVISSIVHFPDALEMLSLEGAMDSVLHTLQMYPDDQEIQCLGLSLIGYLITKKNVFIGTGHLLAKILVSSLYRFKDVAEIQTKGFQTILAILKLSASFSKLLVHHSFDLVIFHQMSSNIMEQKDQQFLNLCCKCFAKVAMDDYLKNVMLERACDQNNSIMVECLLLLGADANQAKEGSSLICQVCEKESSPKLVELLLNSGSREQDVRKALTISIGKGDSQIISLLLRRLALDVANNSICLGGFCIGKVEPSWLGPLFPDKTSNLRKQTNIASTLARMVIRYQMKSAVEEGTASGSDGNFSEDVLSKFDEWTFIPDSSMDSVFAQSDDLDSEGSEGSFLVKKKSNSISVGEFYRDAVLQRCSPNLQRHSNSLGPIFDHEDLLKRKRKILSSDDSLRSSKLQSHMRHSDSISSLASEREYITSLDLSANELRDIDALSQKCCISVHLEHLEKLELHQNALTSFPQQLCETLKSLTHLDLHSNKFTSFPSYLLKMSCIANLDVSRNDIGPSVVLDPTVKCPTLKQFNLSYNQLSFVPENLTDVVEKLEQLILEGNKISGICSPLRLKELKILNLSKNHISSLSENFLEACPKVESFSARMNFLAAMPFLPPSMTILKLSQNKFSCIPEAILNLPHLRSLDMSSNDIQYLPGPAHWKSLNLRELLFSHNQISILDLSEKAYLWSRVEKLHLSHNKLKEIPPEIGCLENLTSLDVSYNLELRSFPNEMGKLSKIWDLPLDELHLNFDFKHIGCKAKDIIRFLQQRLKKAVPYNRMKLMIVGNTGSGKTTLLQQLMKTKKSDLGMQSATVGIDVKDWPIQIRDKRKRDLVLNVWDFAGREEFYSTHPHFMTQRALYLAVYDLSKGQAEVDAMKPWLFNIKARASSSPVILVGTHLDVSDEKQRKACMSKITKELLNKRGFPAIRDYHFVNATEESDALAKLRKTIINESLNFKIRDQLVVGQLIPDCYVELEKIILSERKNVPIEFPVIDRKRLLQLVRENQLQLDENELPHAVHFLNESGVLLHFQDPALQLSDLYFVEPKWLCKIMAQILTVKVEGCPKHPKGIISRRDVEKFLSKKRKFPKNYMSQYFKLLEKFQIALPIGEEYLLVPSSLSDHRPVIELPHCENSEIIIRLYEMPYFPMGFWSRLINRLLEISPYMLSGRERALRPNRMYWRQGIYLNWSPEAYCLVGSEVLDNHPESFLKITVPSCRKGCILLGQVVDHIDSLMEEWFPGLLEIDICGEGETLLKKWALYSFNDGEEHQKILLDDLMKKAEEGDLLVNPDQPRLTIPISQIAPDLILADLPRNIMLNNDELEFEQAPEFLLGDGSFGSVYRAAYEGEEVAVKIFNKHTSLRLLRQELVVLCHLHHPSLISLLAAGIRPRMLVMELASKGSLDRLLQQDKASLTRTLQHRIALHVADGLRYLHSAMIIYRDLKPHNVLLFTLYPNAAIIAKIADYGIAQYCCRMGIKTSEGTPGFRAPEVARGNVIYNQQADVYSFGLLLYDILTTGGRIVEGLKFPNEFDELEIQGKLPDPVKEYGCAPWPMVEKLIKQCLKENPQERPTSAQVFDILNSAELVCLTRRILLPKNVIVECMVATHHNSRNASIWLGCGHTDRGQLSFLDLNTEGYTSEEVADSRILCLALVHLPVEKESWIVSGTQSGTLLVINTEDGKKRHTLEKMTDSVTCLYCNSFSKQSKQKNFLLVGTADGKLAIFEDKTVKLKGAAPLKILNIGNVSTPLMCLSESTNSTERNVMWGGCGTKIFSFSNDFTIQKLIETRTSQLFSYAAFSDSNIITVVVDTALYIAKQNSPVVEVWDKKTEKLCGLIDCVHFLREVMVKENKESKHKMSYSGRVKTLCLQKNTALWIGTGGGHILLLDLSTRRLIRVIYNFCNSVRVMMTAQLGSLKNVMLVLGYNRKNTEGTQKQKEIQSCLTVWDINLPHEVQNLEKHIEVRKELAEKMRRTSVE

IC50 (Mia Paca-2 cells) [nM] | IC50 (A375 cells) [nM] | inhibition at 0.01 µM (CDK9; at 10 nM, read-out: inhibition rate CDK9) [%] | inhibition at 0.1 µM (CDK9; at 100 nM, read-out: inhibition rate CDK9) [%] | IC50 (CDK9; kinase activity assay, Table 3) [nM] | EC50 (wild-type LRRK2) [nM] | Structure (SMILES)
100 to 1000 | 100 to 1000 | 40 to 79 | > 80 | < 50 |  | CN1CCOCCOc2cc(Nc3ncc(F)c(-c4ccc(C(=O)NCC#N)cc4)n3)ccc2OCC1 [Example 16, N-(cyanomethyl)-4-(5-fluoro-2-((7-methyl-2,3,6,7,8,9-hexahydro-5H-benzo[b][1,4,7]trioxa[10]azacyclododecan-13-yl)amino)pyrimidin-4-yl)benzamide]
 |  |  |  |  | < 500 | CCS(=O)(=O)N1CC(CC#N)(n2cc(-c3nc(Nc4ccc5c(c4)OCCN(C)CCO5)nc4[nH]ccc34)cn2)C1 [Example 28, 2-(1-(ethylsulfonyl)-3-(4-(2-((4-methyl-3,4,5,6-tetrahydro-2H-benzo[b][1,4,7]dioxazolin-9-yl)amino)-7H-pyrrolo[2,3-d]pytimidin-4-yl)-1H-pyrazol-1-yl)azetidin-3-yl) acetonitrile]
